Source: patent US11730819B2, “Peptide derivatives having novel linkage structures” (priority 2016, dated 2023)
Several values for one entry are separate records, joined by “and”; a condition that tells them apart may be missing. Equal values may be shown once. Read-outs that look alike come from different tables or passages of the source.

Legend:
[1] = molecular target: T1, MT1-MMP hemopexin domain (Homo sapiens, UniProt P50281); assay: Fluorescence polarisation competition binding assay; conditions: human MT1-MMP
T1 construct: residues Cys319-Gly511 from the human gene; His6 (N); made in house; host or cells: HEK293 cells (transient, pEXPR-IBA42 vector)
Source text: The MT1-MMP hemopexin-like repeats (also known as the MT1-MMP hemopexin domain), residues Cys319-Gly511 from the human gene, were transiently expressed in HEK293 cells as secreted N-terminally His6-tagged soluble protein, using the pEXPR-IBA42 (IBA) expression vector. Following expression, the protein was purified by Nickel-NTA affinity chromatography followed by gel filtration, and purity was checked by SDS-PAGE. Batch to batch variability was also monitored by fluorescence thermal shift experiments in the presence/absence of a hemopexin domain binding bicycle.
(§1) Binding affinity was measured using competition assays using Fluorescence Polarisation (anisotropy).
Fluoresceination may be performed on the N-terminal amino group of the peptide, which is separated from the bicycle core sequence by a sarcosine spacer (usually Sar5). This can be done during Fmoc solid phase synthesis or post-synthetically (after cyclisation with TBMB and purification) if the N-terminal amino group is unique to the peptide. Fluoresceination can also be performed on the C-terminus, usually on a Lysine introduced as the first C-terminal residue, which is then separated from the bicycle core sequence by a sarcosine spacer (usually Sar6). Thus, N-terminal tracers can have a molecular format described as Fluo-Gly-Sar5-A(BicycleCoreSequence), and (BicycleCoreSequence)-A-Sar6-K(Fluo) for a C-terminally fluoresceinated construct. Fluorescent tracers used in the Examples are A-(17-69)-A-Sar6-K(Fluo), A-(17-69-07)-A-Sar6-K(Fluo), and A-(17-69-12)-A-Sar6-K(Fluo).
(§2) Here, a pre-formed complex of PEX with the fluorescent PEX-binding tracer is titrated with free, non-fluoresceinated bicyclic peptide. Since all 17-69-based peptides are expected to bind at the same site, the titrant will displace the fluorescent tracer from PEX. Dissociation of the complex can be measured quantitatively, and the Kd of the competitor (titrant) to the target protein determined. The advantage of the competition method is that the affinities of non-fluoresceinated bicyclic peptides can be determined accurately and rapidly.
(§3) Subsequently, the non-fluorescent competitor bicyclic peptide (usually just the bicycle core sequence) is titrated, such that it displaces the fluorescent tracer from the target protein. The displacement of the tracer is measured and associated with a drop in fluorescence polarisation. The drop in fluorescence polarisation is proportional to the fraction of target protein bound with the non-fluorescent titrant, and thus is a measure of the affinity of titrant to target protein.
(§4) The raw data is fit to the analytical solution of the cubic equation that describes the equilibria between fluorescent tracer, titrant, and binding protein. The fit requires the value of the affinity of fluorescent tracer to the target protein, which can be determined separately by direct binding FP experiments (see previous section).

[2] = molecular target: MT1-MMP (Homo sapiens, UniProt P50281); assay: SPR binding; conditions: read-out: Binding Affinity Kd (SPR)
[3] = Plasma stability in human serum; format: in vitro ADME; conditions: 4 μm concentration, read-out: T1/2 in human serum
Source text: (§5) The stability appears to be slightly greater than that of the corresponding conjugates in which the peptide is linked to the scaffold by three thioether linkages.

[4] = Plasma stability in mouse serum; format: in vitro ADME; conditions: 4 μm concentration, read-out: T1/2 in mouse serum
Source text: as §5

[5] = molecular target: rat/mouse MT1-MMP (Mus musculus, UniProt P53690); assay: Binding affinity to rat/mouse MT1-MMP, measured as previously described; conditions: Binding Affinity (Ki in nM) rat/mouse ki, bicycle peptide-drug conjugates, two values given
Method: as §1, §2, §3
as §4, with “section). The curve fitting was performed using Sigmaplot 12.0 and used an adapted version of the equation described by Zhi-Xin Wang (FEBS Letters 360 (1995) 111-114).” for “section).”
The in vitro binding affinities of the bicycle peptide-drug conjugates prepared above were measured for MT1-MMP as previously described herein.

[6] = system: HT1080 tumor cells; assay: In vivo efficacy against HT1080 tumors in BALB/c nude mice; conditions: biw dosing, BALB/c nude mice with HT1080 tumors
Method: HT1080 tumor cells were maintained in vitro as a monolayer culture in EMEM medium supplemented with 10% heat inactivated fetal bovine serum at 37 C in an atmosphere of 5% CO2 and air. The tumor cells were routinely subcultured twice weekly by trypsin-EDTA treatment. The cells growing in an exponential growth phase were harvested and counted for tumor inoculation.
BALB/c nude mice were inoculated subcutaneously at the right flank with HT1080 tumor cells […] in 0.2 ml of PBS for tumor development. 39 animals were randomized when the average tumor volume reached […].
The BDC compounds were formulated at 0.03 mg/ml in a vehicle buffer containing 25 mM histidine and 10% Sucrose. The formulations were administered twice weekly (biw) at 0.3, 1, 3 and 10 mg/kg. Tumor volume and body weight were measured up to 14 days from the first dosing.

[7] = Binding Affinity (Ki in nM) Human ki, bicycle peptide-drug conjugates, two values given

| SMILES | Ki ([1]; bicycle peptides, read-out: Binding Affinity Ki (h)) | Kd [2] | half-life at 4 μm [3] | Ki [1, 7] | half-life at 4 μm [4] | Ki [5] | tolerated dose [6] |
| --- | --- | --- | --- | --- | --- | --- | --- |
| C#CCCC(=O)NCCC(=O)N(C)CC(=O)N(C)CC(=O)N(C)CC(=O)N(C)CC(=O)N(C)CC(=O)N(C)CC(=O)N(C)CC(=O)N(C)CC(=O)N(C)CC(=O)N(C)CC(=O)N[C@@H](C)C(=O)N[C@H]1CN(C)Cc2cc3cc(c2)CN(C)C[C@@H](C(N)=O)NC(=O)[C@H](C(C)(C)C)NC(=O)[C@H](CC(=O)O)NC(=O)[C@H](Cc2ccc(O)cc2)NC(=O)[C@H](Cc2ccccc2)NC(=O)[C@H](CC(=O)O)NC(=O)[C@H](CCC(=O)O)NC(=O)[C@H](CSC3)NC(=O)[C@@H](C)NC(=O)[C@H](Cc2cccc3ccccc23)NC(=O)[C@H](CCC(=O)O)NC(=O)[C@H](CC(N)=O)NC(=O)[C@@H](C)NC1=O [17-69-07-N450, (PYA)-(B-Ala)-Sar10-A(Dap(Me))(D-Ala)NE(1Nal)(D-Ala)CEDFYD(tBuGly)(Dap(Me))] | 3.7 nM | 1.91 nM | – | – | – | – | – |
| CC[C@H](C)[C@@H]([C@@H](CC(=O)N1CCC[C@H]1[C@H](OC)[C@@H](C)C(=O)N[C@H](C)[C@@H](O)c1ccccc1)OC)N(C)C(=O)[C@@H](NC(=O)[C@H](C(C)C)N(C)C(=O)OCc1ccc(NC(=O)[C@H](CCCNC(N)=O)NC(=O)[C@@H](NC(=O)Cn2cc(CCC(=O)NCCC(=O)N(C)CC(=O)N(C)CC(=O)N(C)CC(=O)N(C)CC(=O)N(C)CC(=O)N(C)CC(=O)N(C)CC(=O)N(C)CC(=O)N(C)CC(=O)N(C)CC(=O)N[C@@H](C)C(=O)N[C@H]3CNCc4cc5cc(c4)CSC[C@H](NC(=O)[C@@H](C)NC(=O)[C@H](Cc4cccc6ccccc46)NC(=O)[C@H](CCC(=O)O)NC(=O)[C@H](CC(N)=O)NC(=O)[C@@H](C)NC3=O)C(=O)N[C@@H](CCC(=O)O)C(=O)N[C@@H](CC(=O)O)C(=O)N[C@@H](Cc3ccccc3)C(=O)N[C@@H](Cc3ccc(O)cc3)C(=O)N[C@@H](CC(=O)O)C(=O)N[C@@H](C(C)(C)C)C(=O)N[C@H](C(N)=O)CNC5)nn2)C(C)C)cc1)C(C)C [BT17BDC-53] | – | – | > 3000 min | 3.6 nM and 2.5 nM | > 3000 min | 1.8 nM and 1.6 nM | – |
| CC[C@H](C)[C@@H]([C@@H](CC(=O)N1CCC[C@H]1[C@H](OC)[C@@H](C)C(=O)N[C@H](C)[C@@H](O)c1ccccc1)OC)N(C)C(=O)[C@@H](NC(=O)[C@H](C(C)C)N(C)C(=O)OCc1ccc(NC(=O)[C@H](CCCNC(N)=O)NC(=O)[C@@H](NC(=O)Cn2cc(CCC(=O)N[C@@H](C)C(=O)N[C@H]3CNCc4cc5cc(c4)CSC[C@H](NC(=O)[C@@H](C)NC(=O)[C@H](Cc4cccc6ccccc46)NC(=O)[C@H](CCC(=O)O)NC(=O)[C@H](CC(N)=O)NC(=O)[C@@H](C)NC3=O)C(=O)N[C@@H](CCC(=O)O)C(=O)N[C@@H](CC(=O)O)C(=O)N[C@@H](Cc3ccccc3)C(=O)N[C@@H](Cc3ccc(O)cc3)C(=O)N[C@@H](CC(=O)O)C(=O)N[C@@H](C(C)(C)C)C(=O)N[C@H](C(N)=O)CNC5)nn2)C(C)C)cc1)C(C)C [BT17BDC-59] | – | – | – | 2.8 nM and 2.7 nM | – | 1.8 nM and 1.7 nM | up to 3 mg/kg |
